In US6462055B2, “Alpha-methylbenzyl-containing thiourea inhibitors of herpes viruses containing a phenylenediamine group” (Wyeth, priority 1998, dated 2002):
Converted amounts (≈) assume the structure as drawn.

Legend:
[1] = system: HCMV recombinant mutant virus (RV145); test: microbe, parasite or virus in culture; format: cell-based, human cytomegalovirus; details: for IC50: Human betaherpesvirus 5, read-out: IC50 ug/ml HCMV, HCMV
Procedure, shortened: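 Human foreskin fibroblasts infected with HCMV RV145 carrying a viral-promoter-driven beta-glucuronidase gene, in presence of compound. At 96 h post-infection, lysates assayed for beta-glucuronidase with colorimetric or fluorogenic glucuronide substrate as replication read-out. IC50 estimated from varying inhibitor amounts.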

VZV strain Ellen = test: VZV Antiviral (ELISA) Assay in human foreskin fibroblast cells; format: cell-based, varicella-zoster virus; details: Human alphaherpesvirus 3, Fibroblast; for inhibition at 10 µg/mL: read-out: % inhibition 10 ug/ml VZV, 10 ug/ml; for IC50: read-out: IC50 (ug/ml) VZV
Procedure, shortened: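 Cell-based VZV (Ellen) spread assay in HFF, 3-day compound exposure in 2% FBS medium. Viral antigen quantified by fluorescent β-galactosidase ELISA; IC50 from inhibition of signal.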

HSV-1 = test: HSV Antiviral (ELISA) Assay in Vero cells; format: cell-based, herpes simplex virus type 1; details: Human alphaherpesvirus 1; HSV-1, Vero cells; read-out: IC50 (ug/ml) HSV
Procedure, shortened: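 Viral replication was quantified by cell-fixed ELISA for HSV glycoprotein D, using a β-galactosidase reporter and fluorogenic umbelliferyl substrate, about 24 h after HSV-1 infection (MOI 0.006) of Vero cells. Compounds, at several concentrations, were added 30 min pre-infection. IC50 was derived from fluorescence relative to the compound-free signal.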

SMILES	IC50 [1] [µg/mL]	inhibition at 10 µg/mL (VZV strain Ellen) [%]	IC50 (VZV strain Ellen) [µg/mL]	IC50 (HSV-1) [µg/mL]	IC50 ug/ml HCMV ([1]; HCMV) [µg/mL]
O=C(O)c1cccc(NC(=S)Nc2ccc(NC(=O)c3ccccc3F)cc2)c1 [Example 963, 3-{3-[4-(2-Fluoro-benzoylamino)-phenyl]-thioureido}-benzoic acid]	> 10	30	> 10	> 10	–
O=C(O)c1cccc(NC(=S)Nc2ccc(NC(=O)c3ccco3)cc2)c1 [Example 964, 3-(3-{4-[(Furan-2-carbonyl)-amino]-phenyl}-thioureido)-benzoic acid]	> 10	0	> 10	> 10	–
CC(=O)c1cccc(NC(=S)Nc2ccc(NC(=O)c3ccccc3F)cc2)c1 [Example 965, N-{4-[3-(3-Acetyl-phenyl)-thioureido]-phenyl}-2-fluoro-benzamide]	> 10	12	> 10	5 (≈ 12.3 µM)	–
CC(NC(=S)Nc1ccc(NC(=O)c2ccccc2C(F)(F)F)cc1)c1cc2ccccc2o1 (stereo not drawn) [Example 974, N-{4-[3-(1-Benzofuran-2-yl-ethyl)-thioureido]-phenyl}-2-trifluoromethyl-benzamide]	> 10	–	> 7.5	> 10	–
CC(NC(=S)Nc1ccc(C(=O)Nc2ccc(F)cc2)cc1)c1ccc(F)cc1 (stereo not drawn) [Example 975, N-(4-Fluoro-phenyl)-4-{3-[1-(4-fluoro-phenyl)-ethyl]-thioureido}-benzamide]	> 10	–	0.87 (≈ 2.11 µM)	> 10	–
CC(NC(=S)Nc1ccc(NC(=O)c2nccc3ccccc23)cc1)c1ccc(F)cc1 (stereo not drawn) [Example 976, Isoquinoline-1-carboxylic acid (4-{3-[1-(4-fluoro-phenyl)-ethyl]-thioureido}-phenyl)-amide]	–	–	0.04 (≈ 0.09 µM)	> 10	>10
CC(NC(=S)Nc1ccc(NC(=O)c2nccc3ccccc23)cc1)c1cc2ccccc2o1 (stereo not drawn) [Example 977, Isoquinoline-1-carboxylic acid {4-[3-(1-benzofuran-2-yl-ethyl)-thioureido]-phenyl}-amide]	> 10	–	0.05 (≈ 0.107 µM)	> 10	–
CC(NC(=S)Nc1ccc(NC(=O)c2cc3ccccc3o2)cc1)c1ccc(F)cc1 (stereo not drawn) [Example 980, Benzofuran-2-carboxylic acid (4-{3-[1-(4-fluoro-phenyl)-ethyl]-thioureido}-phenyl)-amide]	> 10	–	0.15 (≈ 0.346 µM)	> 10	–
CC(NC(=S)Nc1ccc(NC(=O)c2cc3ccccc3o2)cc1)c1cc2ccccc2o1 (stereo not drawn) [Example 981, Benzofuran-2-carboxylic acid {4-[3-(1-benzofuran-2-yl-ethyl)-thioureido]-phenyl}-amide]	> 10	–	0.2 (≈ 0.439 µM)	> 10	–
CC(NC(=S)Nc1ccc(NC(=O)c2cc3ccccc3cn2)cc1)c1cc2ccccc2o1 (stereo not drawn) [Example 985, Isoquinoline-3-carboxylic acid {4-[3-(1-benzofuran-2-yl-ethyl)-thioureido]-phenyl}-amide]	> 10	–	0.035 (≈ 0.075 µM)	> 10	–
CC(NC(=S)Nc1ccc(NC(=O)c2cnc3ccccc3c2)cc1)c1ccc(F)cc1 (stereo not drawn) [Example 988, Quinoline-3-carboxylic acid (4-{3-[1-(4-fluoro-phenyl)-ethyl]-thioureido}-phenyl)-amide]	> 10	–	3.4 (≈ 7.65 µM)	> 10	–
CC(C)COc1ccc(NC(=S)Nc2ccc(NC(=O)c3ccccc3F)cc2)cc1Cl [Example 994, N-{4-[3-(3-Chloro-4-isobutoxy-phenyl)-thioureido]-phenyl}-2-fluoro-benzamide]	> 10	–	> 10	> 10	–
COc1ccc(NC(=S)Nc2ccc(NC(=O)c3ccccc3F)cc2)cc1F [Example 995, 2-Fluoro-N-{4-[3-(3-fluoro-4-methoxy-phenyl)-thioureido]-phenyl}-benzamide]	> 10	–	> 10	> 10	–
